The values below come from article PMC5354814, “In silico and in vitro drug screening identifies new therapeutic approaches for Ewing sarcoma” (Oncotarget, 2016).

Where two headings read alike, the source gives them in different places. A value given as a limit tells only on which side of the number the result lay.

Experiment in all cases: In vitro high-throughput screen of FDA-approved drug library (CellTiter-Glo)
Common to all, as to assay type: cell-based
On the technique in general: ATP-based viability assays read luminescence as a measure of living cells.

In test [1] the test system is A673. The conditions noted are these: for inhibition at 1 µM: Homo sapiens, read-out: % Inhibition A673. The method, then: (§1) We screened, in parallel to the three computational approaches, an FDA-approved drug library containing 2,316 drugs (1,536 unique chemical entities). […] The drug screening study protocol employed is summarized in Supplementary Table S1.
(§2) Cells were grown to 80–90% confluence, harvested and aliquoted into 384-well plates (black μClear microplates, Greiner bio-one, Germany) at concentrations of 750–1,500 cells per well in a total volume of 25 μl/well using a Matrix Wellmate (Thermo Scientific). Cells were cultured for 72 hours in a 5% CO2 atmosphere at 37°C. Aliquots of 25 μl CellTiter-Glo® Reagent (Promega) were added directly to each well, the plates were incubated at room temperature for 20 min and the luminescence signal was measured according to the manufacturer's protocol. The measurements were made using Infinite® M200 Pro plate reader (Tecan, Switzerland). […] Data were normalized to percentage inhibition. […]
(§3) (A) Color scale for drug inhibition values. […]

Test [2] relates to SK-ES-1. The conditions noted are these: for inhibition at 1 µM: Homo sapiens, read-out: % Inhibition SK-ES-1. On the procedure:
as §1, §2, §3

The subject of test [3] is Hs 919.T. The conditions noted are these: for inhibition at 1 µM: read-out: % Inhibition Hs 919.T. The method, then: as §1, §2, §3
Test [4] relates to RD-ES. The conditions noted are these: for inhibition at 1 µM: RD-ES, read-out: % Inhibition RD-ES. On the procedure: as §1, §2, §3
[5] abbreviates: SK-ES1, 1 μmol/L drug, 72 hours.
Where [6] appears, read: 1 μmol/L drug, 72 hours, control cell line.

For orientation: inhibition means the relative decrease from the control value, in per cent. For the compound `CN(Cc1cnc2nc(N)nc(N)c2n1)c1ccc(C(=O)N[C@@H](CCC(=O)O)C(=O)O)cc1` (racemic) [Methotrexate/Amethopterin (R,S), Methotrexate], the inhibition at 1 µM is 89% in test [1] (A673, 1 μmol/L drug, 72 hours); below 50% in test [2] (setting [5]); below 50% in test [3] (setting [6]); 82% in test [4] (1 μmol/L drug, 72 hours).

`Clc1ccccc1CN1CCc2sccc2C1` [Ticlopidine]: the inhibition at 1 µM in test [1] (A673, 1 μmol/L drug, 72 hours) was 66%; in test [2] (setting [5]) it was below 50%; in test [3] (setting [6]), below 50%; in test [4] (1 μmol/L drug, 72 hours), below 50%.

With `Cc1nc2ccc(CN(C)c3ccc(C(=O)N[C@@H](CCC(=O)O)C(=O)O)s3)cc2c(=O)[nH]1` [Raltitrexed], the inhibition at 1 µM in test [1] (A673, 1 μmol/L drug, 72 hours) is 59%; in test [2] (setting [5]), 51%; in test [3] (setting [6]), below 50%; in test [4] (1 μmol/L drug, 72 hours) it was 80%.

As for `CO[C@H]1C[C@@H]2CC[C@@H](C)[C@@](O)(O2)C(=O)C(=O)N2CCCC[C@H]2C(=O)O[C@H]([C@H](C)C[C@@H]2CC[C@@H](O)[C@H](OC)C2)CC(=O)[C@H](C)/C=C(\C)[C@@H](O)[C@@H](OC)C(=O)[C@H](C)C[C@H](C)/C=C/C=C/C=C/1C` [Rapamycin], the inhibition at 1 µM in test [1] (A673, 1 μmol/L drug, 72 hours) is 67%; in test [2] (setting [5]), 51%; in test [3] (setting [6]), below 50%; in test [4] (1 μmol/L drug, 72 hours), 62%.

On to `CCOC(=O)C1=C[C@@H](OC(CC)CC)[C@H](NC(C)=O)[C@@H](N)C1` [Oseltamivir], for which the inhibition at 1 µM in test [1] (A673, 1 μmol/L drug, 72 hours) was 95%; in test [2] (setting [5]), 98%; in test [3] (setting [6]) it was below 50%; in test [4] (1 μmol/L drug, 72 hours), 95%.

For the compound `O=c1[nH]c(=O)n([C@H]2C[C@H](O)[C@@H](CO)O2)cc1F` [Floxuridine], the inhibition at 1 µM is 68% in test [1] (A673, 1 μmol/L drug, 72 hours); 56% in test [2] (setting [5]); below 50% in test [3] (setting [6]); 92% in test [4] (1 μmol/L drug, 72 hours).

Turning to `NNC(=O)c1ccncc1` [Isoniazid], the inhibition at 1 µM in test [1] (A673, 1 μmol/L drug, 72 hours) is 56%; in test [2] (setting [5]), below 50%; in test [3] (setting [6]), below 50%; in test [4] (1 μmol/L drug, 72 hours), below 50%.

For the compound `COc1cc2c3cc1Oc1cc(ccc1O)C[C@@H]1c4c(cc(OC)c(O)c4Oc4ccc(cc4)C[C@@H]3N(C)CC2)CC[N+]1(C)C.Cl.O.O.O.O.O.[Cl-]` [(+)-Tubocurarine chloride], in test [1] (1 μmol/L drug, 72 hours), the “% Inhibition A673” value is below 50%. The “% Inhibition SK-ES-1” value in test [2] (1 μmol/L drug, 72 hours) is given as below 50%. Moreover, in test [3] (setting [6]), the “% Inhibition Hs 919.T.” value was below 50%. In addition, the “% Inhibition RD-ES” value in test [4] (1 μmol/L drug, 72 hours) was found to be 51%.

For the compound `CN(Cc1cnc2nc(N)nc(N)c2n1)c1ccc(C(=O)N[C@@H](CCC(=O)O)C(=O)O)cc1` [L-Glutamic acid, N-[4-[[(2,4-diamino-6-pteridinyl)methyl]methylamino]benzoyl]], the “% Inhibition A673” value in test [1] (1 μmol/L drug, 72 hours) came out at 85%. The “% Inhibition SK-ES-1” value in test [2] (1 μmol/L drug, 72 hours) turned out to be 57%. In test [3] (setting [6]), the “% Inhibition Hs 919.T.” value was below 50%. In addition, the “% Inhibition RD-ES” value in test [4] (1 μmol/L drug, 72 hours) came out at 77%.

For the compound `Nc1nc(Cl)nc2c1ncn2[C@H]1C[C@H](O)[C@@H](CO)O1` [Cladribine], the inhibition at 1 µM in test [1] (A673, 1 μmol/L drug, 72 hours) is 87%; in test [2] (setting [5]) it was 89%; in test [3] (setting [6]), below 50%; in test [4] (1 μmol/L drug, 72 hours) it was 99%.

On to `CCCCC/C=C\C/C=C\C/C=C\C/C=C\CCCC(=O)Nc1ccc(O)cc1` [AM 404], for which the “% Inhibition A673” value in test [1] (1 μmol/L drug, 72 hours) came to 65%. In test [2] (1 μmol/L drug, 72 hours), the “% Inhibition SK-ES-1” value is on record as below 50%. Moreover, the “% Inhibition Hs 919.T.” value in test [3] (setting [6]) is on record as below 50%. Also, in test [4] (1 μmol/L drug, 72 hours), the “% Inhibition RD-ES” value was below 50%.

For `O=c1c2ccccc2[se]n1-c1ccccc1` [Ebselen], the inhibition at 1 µM in test [1] (A673, 1 μmol/L drug, 72 hours) was 93%; in test [2] (setting [5]), 96%; in test [3] (setting [6]), below 50%; in test [4] (1 μmol/L drug, 72 hours) it was 95%.

`CCCCCC[C@H]1C(=O)O[C@H](C)[C@H](NC(=O)c2cccc(NC=O)c2O)C(=O)O[C@@H](C)[C@@H]1OC(=O)CC(C)C` [Antimycin A]: the inhibition at 1 µM in test [1] (A673, 1 μmol/L drug, 72 hours) was below 50%; in test [2] (setting [5]), below 50%; in test [3] (setting [6]) it was below 50%; in test [4] (1 μmol/L drug, 72 hours) it was 69%.

As for `NC(=O)N/N=C/c1ccc([N+](=O)[O-])o1` [Nitrofural/Nitrofurazone, Nitrofurazone], the inhibition at 1 µM in test [1] (A673, 1 μmol/L drug, 72 hours) is 52%; in test [2] (setting [5]), 72%; in test [3] (setting [6]), below 50%; in test [4] (1 μmol/L drug, 72 hours) it was 52%.

For `CCC(C)(C)c1ccc(CC(C)CN2C[C@@H](C)O[C@@H](C)C2)cc1` (stereo partly shown) [Amorolfine], the inhibition at 1 µM in test [1] (A673, 1 μmol/L drug, 72 hours) is 56%; in test [2] (setting [5]) it was below 50%; in test [3] (setting [6]) it was below 50%; in test [4] (1 μmol/L drug, 72 hours), below 50%.

Turning to `CCN(CC)C(=S)SSC(=S)N(CC)CC` [Disulfiram], the inhibition at 1 µM in test [1] (A673, 1 μmol/L drug, 72 hours) is 99%; in test [2] (setting [5]) it was 95%; in test [3] (setting [6]), below 50%; in test [4] (1 μmol/L drug, 72 hours), 96%.

Turning to `CC[C@@]1(O)C(=O)OCc2c1cc1n(c2=O)Cc2cc3ccccc3nc2-1` [Camptothecine (S,+)], in test [1] (1 μmol/L drug, 72 hours), the “% Inhibition A673” value was determined as 99%. In addition, in test [2] (1 μmol/L drug, 72 hours), the “% Inhibition SK-ES-1” value was determined as 96%. The “% Inhibition Hs 919.T.” value in test [3] (setting [6]) is below 50%. Moreover, in test [4] (1 μmol/L drug, 72 hours), the “% Inhibition RD-ES” value is given as 97%.

As for `C[C@]12CC[C@@H]3c4ccc(O)cc4CC[C@H]3[C@@H]1CC[C@@H]2O` [Estradiol], the inhibition at 1 µM was 65% in test [1] (A673, 1 μmol/L drug, 72 hours); below 50% in test [2] (setting [5]); below 50% in test [3] (setting [6]); below 50% in test [4] (1 μmol/L drug, 72 hours).

On to `Nc1nc(=S)c2ncn([C@@H]3O[C@H](CO)[C@@H](O)[C@H]3O)c2[nH]1` [Thioguanosine], for which the inhibition at 1 µM was 73% in test [1] (A673, 1 μmol/L drug, 72 hours); 64% in test [2] (setting [5]); below 50% in test [3] (setting [6]); below 50% in test [4] (1 μmol/L drug, 72 hours).

`COC(=O)Nc1nc2cc(C(=O)c3ccc(F)cc3)ccc2[nH]1` [Flubendazole]: the inhibition at 1 µM in test [1] (A673, 1 μmol/L drug, 72 hours) was 77%; in test [2] (setting [5]), 86%; in test [3] (setting [6]), below 50%; in test [4] (1 μmol/L drug, 72 hours), 86%.

`N[C@@H](Cc1ccc(N(CCCl)CCCl)cc1)C(=O)O` [Melphalan]: the inhibition at 1 µM in test [1] (A673, 1 μmol/L drug, 72 hours) was below 50%; in test [2] (setting [5]), 91%; in test [3] (setting [6]), below 50%; in test [4] (1 μmol/L drug, 72 hours), 95%.

For `Cc1cc(/C=C/c2ccc3cc(N(C)C)ccc3[n+]2C)c(C)n1-c1ccccc1` [Pyrvinium pamoate], the inhibition at 1 µM in test [1] (A673, 1 μmol/L drug, 72 hours) is 84%; in test [2] (setting [5]), 96%; in test [3] (setting [6]), below 50%; in test [4] (1 μmol/L drug, 72 hours), 98%.

In the case of `CCCSc1ccc2nc(NC(=O)OC)[nH]c2c1` [Albendazole], the inhibition at 1 µM in test [1] (A673, 72 h) was 89%; in test [2] (SK-ES1, 72 h), 93%; in test [3] (72 h), below 50%; in test [4] (72 h) it was 93%.

In the case of `CCc1c2c(nc3ccc(OC(=O)N4CCC(N5CCCCC5)CC4)cc13)-c1cc3c(c(=O)n1C2)COC(=O)[C@]3(O)CC.Cl` [Irinotecan Hydrochloride], the “% Inhibition A673” value in test [1] (1 μmol/L drug, 72 hours) is 83%. In addition, the “% Inhibition SK-ES-1” value in test [2] (1 μmol/L drug, 72 hours) came to 98%. In test [3] (setting [6]), the “% Inhibition Hs 919.T.” value is below 50%. In addition, the “% Inhibition RD-ES” value in test [4] (1 μmol/L drug, 72 hours) is on record as 99%.

On to `COc1c(C)c2c(c(O)c1C/C=C(\C)CCC(=O)O)C(=O)OC2` [Mycophenolic Acid], for which the inhibition at 1 µM in test [1] (A673, 1 μmol/L drug, 72 hours) is below 50%; in test [2] (setting [5]), below 50%; in test [3] (setting [6]), below 50%; in test [4] (1 μmol/L drug, 72 hours), 52%.
